In PubChem BioAssay AID1963829 (Molecular Pharmacology Branch, DTP, NCI, 2024):
pIC50: −log10 of the molar value.

Test system: 935938-334-R-J1-PDC complex spheroid viability
Assay: Anticancer human tumor 935938-334-R-J1-PDC patient-derived small intestine adenocarcinoma cell line growth inhibition [POLQ]
Conditions: for pIC50: curve of first compound; for viability, T/C: stronger effect = lower value
How it was run: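 Three-cell-type spheroids modelling solid tumor plus stroma served as the readout system; POL inhibitors were tested individually and in combination, concentration ranges set by clinical Cmax where known.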

[1] = second compound 0.0316 µM, first compound 0.0316 µM
[2] = second compound 0.0316 µM, first compound 0.1 µM
[3] = second compound 0.0316 µM, first compound 0.316 µM
[4] = second compound 0.0316 µM, first compound 1 µM
[5] = second compound 0.1 µM, first compound 0.0316 µM
[6] = second compound 0.1 µM, first compound 0.1 µM
[7] = second compound 0.1 µM, first compound 0.316 µM
[8] = second compound 0.1 µM, first compound 1 µM
[9] = second compound 0.316 µM, first compound 0.0316 µM
[10] = second compound 0.316 µM, first compound 0.1 µM
[11] = second compound 0.316 µM, first compound 0.316 µM
[12] = second compound 0.316 µM, first compound 1 µM
[13] = second compound 1 µM, first compound 0.0316 µM
[14] = second compound 1 µM, first compound 0.1 µM
[15] = second compound 1 µM, first compound 0.316 µM
[16] = second compound 1 µM, first compound 1 µM
[17] = second compound 3.16 µM, first compound 0.0316 µM
[18] = second compound 3.16 µM, first compound 0.1 µM
[19] = second compound 3.16 µM, first compound 0.316 µM
[20] = second compound 3.16 µM, first compound 1 µM
[21] = second compound 10 µM, first compound 0.0316 µM
[22] = second compound 10 µM, first compound 0.1 µM
[23] = second compound 10 µM, first compound 0.316 µM
[24] = second compound 10 µM, first compound 1 µM
[25] = second compound 0.0316 µM, first compound 3.16 µM
[26] = second compound 0.0316 µM, first compound 10 µM
[27] = second compound 0.1 µM, first compound 3.16 µM
[28] = second compound 0.1 µM, first compound 10 µM
[29] = second compound 0.316 µM, first compound 3.16 µM
[30] = second compound 0.316 µM, first compound 10 µM
[31] = second compound 1 µM, first compound 3.16 µM
[32] = second compound 1 µM, first compound 10 µM
[33] = second compound 3.16 µM, first compound 3.16 µM
[34] = second compound 3.16 µM, first compound 10 µM
[35] = second compound 10 µM, first compound 3.16 µM
[36] = second compound 10 µM, first compound 10 µM
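Further: spheroids exposed to drugs for seven days before viability read.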
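Wherever viability, T/C is given: 100% = DMSO vehicle control wells.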

Question: Which results are given for `C=CCn1c(=O)c2cnc(Nc3ccc(N4CCN(C)CC4)cc3)nc2n1-c1cccc(C(C)(C)O)n1` + COC1C(OC(N)=O)C(O)C(Oc2ccc3c(O)c(NC(=O)c4ccc(O)c(CC=C(C)C)c4)c(=O)oc3c2C)OC1(C)C?
Answer: pIC50 (second compound 0.0316 µM): 6.19; pIC50 (second compound 0.1 µM): 6.23; pIC50 (second compound 0.316 µM): 6.14; pIC50 (second compound 1 µM): 6.23; pIC50 (second compound 3.16 µM): 6.21; pIC50 (second compound 10 µM): 6.41; viability, T/C (second compound 0.0316 µM, first compound 0.00316 µM): 97.9%; viability, T/C (second compound 0.0316 µM, first compound 0.01 µM): 135%; viability, T/C [1]: 82.4%; viability, T/C [2]: 135%; viability, T/C [3]: 84.5%; viability, T/C [4]: 29.5%; viability, T/C (second compound 0.1 µM, first compound 0.00316 µM): 136%; viability, T/C (second compound 0.1 µM, first compound 0.01 µM): 111%; viability, T/C [5]: 88.8%; viability, T/C [6]: 134%; viability, T/C [7]: 71.4%; viability, T/C [8]: 32.1%; viability, T/C (second compound 0.316 µM, first compound 0.00316 µM): 126%; viability, T/C (second compound 0.316 µM, first compound 0.01 µM): 96.7%; viability, T/C [9]: 80.4%; viability, T/C [10]: 128%; viability, T/C [11]: 78.1%; viability, T/C [12]: 39.4%; viability, T/C (second compound 1 µM, first compound 0.00316 µM): 93.1%; viability, T/C (second compound 1 µM, first compound 0.01 µM): 112%; viability, T/C [13]: 123%; viability, T/C [14]: 86.3%; viability, T/C [15]: 74.8%; viability, T/C [16]: 30.4%; viability, T/C (second compound 3.16 µM, first compound 0.00316 µM): 130%; viability, T/C (second compound 3.16 µM, first compound 0.01 µM): 96.8%; viability, T/C [17]: 100%; viability, T/C [18]: 112%; viability, T/C [19]: 82.5%; viability, T/C [20]: 26.6%; viability, T/C (second compound 10 µM, first compound 0.00316 µM): 90.5%; viability, T/C (second compound 10 µM, first compound 0.01 µM): 115%; viability, T/C [21]: 120%; viability, T/C [22]: 86.7%; viability, T/C [23]: 57.9%; viability, T/C [24]: 24.5%

Question: Which results are given for `C=CC(=O)N1CCN(c2nc(=O)n(-c3c(C)ccnc3C(C)C)c3nc(-c4c(O)cccc4F)c(F)cc23)C(C)C1` (stereo unspecified) + COC1C(OC(N)=O)C(O)C(Oc2ccc3c(O)c(NC(=O)c4ccc(O)c(CC=C(C)C)c4)c(=O)oc3c2C)OC1(C)C?
Answer: pIC50 (second compound 0.0316 µM): < 5.00; pIC50 (second compound 0.1 µM): < 5.00; pIC50 (second compound 0.316 µM): < 5.00; pIC50 (second compound 1 µM): < 5.00; pIC50 (second compound 3.16 µM): < 5.00; pIC50 (second compound 10 µM): < 5.00; viability, T/C [1]: 107%; viability, T/C [2]: 88.4%; viability, T/C [3]: 107%; viability, T/C [4]: 82.9%; viability, T/C [25]: 131%; viability, T/C [26]: 111%; viability, T/C [5]: 85.3%; viability, T/C [6]: 110%; viability, T/C [7]: 90.8%; viability, T/C [8]: 99.3%; viability, T/C [27]: 104%; viability, T/C [28]: 126%; viability, T/C [9]: 129%; viability, T/C [10]: 87.2%; viability, T/C [11]: 103%; viability, T/C [12]: 80.7%; viability, T/C [29]: 85.5%; viability, T/C [30]: 115%; viability, T/C [13]: 101%; viability, T/C [14]: 86.4%; viability, T/C [15]: 101%; viability, T/C [16]: 107%; viability, T/C [31]: 102%; viability, T/C [32]: 113%; viability, T/C [17]: 117%; viability, T/C [18]: 99.7%; viability, T/C [19]: 93.4%; viability, T/C [20]: 96.9%; viability, T/C [33]: 102%; viability, T/C [34]: 111%; viability, T/C [21]: 102%; viability, T/C [22]: 81.3%; viability, T/C [23]: 106%; viability, T/C [24]: 94.7%; viability, T/C [35]: 103%; viability, T/C [36]: 118%

Question: `COc1cccc2c1C(=O)c1c(O)c3c(c(O)c1C2=O)CC(O)(C(=O)CO)CC3OC1CC(N)C(O)C(C)O1` (stereo unspecified) + Nc1ccc(C#CCN(C(=O)Cc2ncc(C(F)(F)F)cc2C(F)(F)F)c2ccc(F)cc2)nn1 was tested. Which pIC50 (second compound 0.0316 µM) did it give?
Answer: 7.15

Question: What about the pIC50 (second compound 0.1 µM) of the same compound?
Answer: 7.06

Question: What about the pIC50 (second compound 0.316 µM) of the same compound?
Answer: > 7.50

Question: What about the pIC50 (second compound 1 µM) of the same compound?
Answer: 7.26

Question: And the pIC50 (second compound 3.16 µM)?
Answer: 7.45

Question: And the pIC50 (second compound 10 µM)?
Answer: 7.11

Question: What about the viability, T/C [1] of the same compound?
Answer: 67.3%

Question: What about the viability, T/C [2] of the same compound?
Answer: 39.4%

Question: And the viability, T/C [3]?
Answer: 27.4%

Question: And the viability, T/C [4]?
Answer: 22.2%

Question: What about the viability, T/C [25] of the same compound?
Answer: 8.04%

Question: What about the viability, T/C [26] of the same compound?
Answer: 3.61%

Question: And the viability, T/C [5]?
Answer: 69.9%

Question: And the viability, T/C [6]?
Answer: 45.5%

Question: And the viability, T/C [7]?
Answer: 31.3%

Question: What about the viability, T/C [8] of the same compound?
Answer: 19.6%

Question: What about the viability, T/C [27] of the same compound?
Answer: 7.02%

Question: And the viability, T/C [28]?
Answer: 3.54%

Question: And the viability, T/C [9]?
Answer: 49.8%

Question: What about the viability, T/C [10] of the same compound?
Answer: 32.1%

Question: And the viability, T/C [11]?
Answer: 30.9%

Question: What about the viability, T/C [12] of the same compound?
Answer: 23.7%

Question: What about the viability, T/C [29] of the same compound?
Answer: 8.73%

Question: And the viability, T/C [30]?
Answer: 3.32%

Question: What about the viability, T/C [13] of the same compound?
Answer: 58.9%

Question: What about the viability, T/C [14] of the same compound?
Answer: 38.8%

Question: What about the viability, T/C [15] of the same compound?
Answer: 30.3%

Question: And the viability, T/C [16]?
Answer: 18.8%

Question: And the viability, T/C [31]?
Answer: 9.11%

Question: What about the viability, T/C [32] of the same compound?
Answer: 4.86%

Question: What about the viability, T/C [17] of the same compound?
Answer: 52.6%

Question: What about the viability, T/C [18] of the same compound?
Answer: 35.4%

Question: And the viability, T/C [19]?
Answer: 27.9%

Question: What about the viability, T/C [20] of the same compound?
Answer: 20.3%

Question: And the viability, T/C [33]?
Answer: 5.88%

Question: What about the viability, T/C [34] of the same compound?
Answer: 5.57%

Question: What about the viability, T/C [21] of the same compound?
Answer: 68.1%

Question: What about the viability, T/C [22] of the same compound?
Answer: 38.4%

Question: And the viability, T/C [23]?
Answer: 38%

Question: What about the viability, T/C [24] of the same compound?
Answer: 18.9%

Question: And the viability, T/C [35]?
Answer: 5.97%

Question: And the viability, T/C [36]?
Answer: 6.61%
